# Measured values published in publication PMC6365506, “Plasmodium falciparum specific helicase 2 is a dual, bipolar helicase and is crucial for parasite growth” (Scientific Reports, 2019).
# What was measured:
# PfPSH2 [1] = target: T1, PfPSH2 (Plasmodium falciparum, UniProt A0A1Q1G9G0); assay: radiolabelled Pi release, TLC; assay type: biochemical; details: M13mp19 ssDNA or total RNA as stimulator; 1.0 mM MgCl2, pH 8.0, 37 °C; labelled compound ([γ-32P]ATP with 1 mM cold ATP)
# T1 construct: gene PSH2; full length, 880 residues, ~105 kDa, His-tagged (pET28a+), expressed in E. coli BL21 codon Plus, Ni-NTA purified
# T1 sequence (A0A1Q1G9G0 1-880): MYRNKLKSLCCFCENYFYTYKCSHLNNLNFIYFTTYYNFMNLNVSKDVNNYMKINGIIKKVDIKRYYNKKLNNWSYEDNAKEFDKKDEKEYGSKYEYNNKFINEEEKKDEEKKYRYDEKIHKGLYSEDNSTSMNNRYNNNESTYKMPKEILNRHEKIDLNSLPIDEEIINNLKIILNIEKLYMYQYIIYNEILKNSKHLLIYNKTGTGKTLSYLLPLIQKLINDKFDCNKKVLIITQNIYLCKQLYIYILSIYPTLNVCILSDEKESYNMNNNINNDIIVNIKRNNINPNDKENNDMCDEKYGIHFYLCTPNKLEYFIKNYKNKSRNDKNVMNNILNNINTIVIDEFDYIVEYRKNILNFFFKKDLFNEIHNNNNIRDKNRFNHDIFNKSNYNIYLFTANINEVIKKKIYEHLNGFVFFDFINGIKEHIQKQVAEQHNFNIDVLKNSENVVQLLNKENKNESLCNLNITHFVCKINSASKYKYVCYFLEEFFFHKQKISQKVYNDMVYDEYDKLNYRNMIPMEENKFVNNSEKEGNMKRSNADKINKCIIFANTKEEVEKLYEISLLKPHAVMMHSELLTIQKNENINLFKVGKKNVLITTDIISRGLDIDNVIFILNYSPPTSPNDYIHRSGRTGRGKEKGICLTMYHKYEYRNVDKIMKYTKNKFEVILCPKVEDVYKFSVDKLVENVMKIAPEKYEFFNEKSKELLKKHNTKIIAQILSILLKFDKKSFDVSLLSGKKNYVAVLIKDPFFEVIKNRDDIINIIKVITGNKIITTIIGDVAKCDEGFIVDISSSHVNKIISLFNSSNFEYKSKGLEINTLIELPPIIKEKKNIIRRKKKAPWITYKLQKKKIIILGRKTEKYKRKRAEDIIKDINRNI
# PfPSH2 [2] = target: T1, PfPSH2; assay: DNA helicase unwinding assay, gel autoradiography; assay type: biochemical; details: 32P-labelled partial duplex DNA; dATP in place of ATP; 1.0 mM MgCl2, pH 8.0, 37 °C; 80 nM protein
Structure (SMILES),"radiolabelled Pi release, TLC (PfPSH2 [1])","DNA helicase unwinding assay, gel autoradiography (PfPSH2 [2])"
Nc1ncnc2c1ncn2[C@@H]1O[C@H](COP(=O)(O)OP(=O)(O)OP(=O)(O)O)[C@@H](O)[C@H]1O [ATP],PfPSH2 shows concentration-dependent ATPase activity in the presence of DNA,
Nc1ncnc2c1ncn2[C@H]1C[C@H](O)[C@@H](COP(=O)(O)OP(=O)(O)OP(=O)(O)O)O1 [dATP],,PfPSH2 prefers ATP and dATP for unwinding the duplex substrate
